Test results taken from ChEMBL document CHEMBL1144949, “4-Phenyl-4H-pyrans as IK(Ca) channel blockers” (Bioorg Med Chem Lett, 2003).

Tests used:
Assay type in all cases: functional, cell-based; call rule not given here
C6-BU-1 [1] = test: IKCa channel inhibition was determined measuring ionomycin-induced Rb+ efflux of pre loaded rat C6BU1 glioma cell in comparison with Nifedipine; NA=Inactive at 1000 nM
C6-BU-1 [2] = test: IKCa channel inhibition was determined measuring ionomycin-induced Rb+ efflux of pre loaded rat C6BU1 glioma cell in comparison with Nifedipine
C6-BU-1 [3] = test: IKCa channel inhibition was determined at 72% residual Rb+ efflux of pre loaded rat C6BU1 glioma cell in comparison with Nifedipine

Row | IC50 (C6-BU-1 [2]) [nM] | Structure (SMILES) | further results
1 |  | CCCCOC(=O)C1=C(C)OC(C)=C(C(=O)OCCCC)C1c1ccc(Cl)cc1 | IC50 (C6-BU-1 [1]): Not Active
2 | 100 | COC(=O)C1=C(C)OC(C)=C(C(=O)OC)C1c1ccccc1Cl | 
3 | 24 | COC(=O)C1=C(C)OC(C)=C(C(=O)OC)C1c1ccc(Cl)cc1 | 
4 | 26 | COC(=O)C1=C(C)OC(C)=C(C(=O)OC)C1c1cccc(Cl)c1 | 
5 | 160 | COC(=O)C1=C(C)OC(C)=C(C(=O)OC)C1c1ccccc1 | 
6 | 150 | CCOC(=O)C1=C(C)OC(C)=C(C(=O)OCC)C1c1ccc(Cl)cc1 | 
7 | 24 | COC(=O)C1=C(C)OC(C)=C(C(=O)OC)C1c1ccc(Cl)c(C(F)(F)F)c1 | 
8 | 220 | CC(=O)C1=C(C)OC(C)=C(C(C)=O)C1c1ccc(Cl)cc1 | 
9 |  | CCCOC(=O)C1=C(C)OC(C)=C(C(=O)OCCC)C1c1ccc(Cl)cc1 | IC50 (C6-BU-1 [3]): 1000 nM
10 | 35 | CCOC(=O)C1=C(C)OC(C)=C(C(=O)OC)C1c1ccc(Cl)cc1 (racemic) | 
11 | 75 | COC(=O)C1=C(C)OC(C)=C(C(C)=O)C1c1ccc(Cl)cc1 (racemic) | 
12 | 8 | COC(=O)C1=C(C)OC(C)=C(C(C)=O)C1c1ccc(Cl)c(C(F)(F)F)c1 (racemic) | 

Row | Structure (SMILES) | IC50 (C6-BU-1 [2]) [nM] | further results
13 | COC(=O)C1=C(C)NC(C)=C(C(=O)OC)C1c1ccccc1[N+](=O)[O-] [NIFEDIPINE] | 1000 | 
